In paper PMC9607644, “Glycoconjugation of Quinoline Derivatives Using the C-6 Position in Sugars as a Strategy for Improving the Selectivity and Cytotoxicity of Functionalized Compounds” (Molecules, 2022):

Key:
[1] = test system: HCT-116 cells; test: MTT cytotoxicity assay, HCT-116; type: cell-based, human; details: for IC50: Homo sapiens, HCT-116; for Selectivity Index (SI) HCT-116: IC50 NHDF-Neo / IC50 HCT-116, 72 h incubation; for inhibition of cell growth at the highest doses, HCT-116: 72 h
Method: (§1) An in vitro biological test package was performed for the obtained derivatives. […] The MTT test is a colorimetric method for detecting proliferating cells. It is based on the ability of the enzyme mitochondrial dehydrogenase to convert yellow tetrazole salt (MTT) into purple formazan. The amount of the product formed in the reaction, determined spectrophotometrically, is proportional to the number of living cells.
(§2) The in vitro cytotoxicity of the test compounds was determined by the MTT (3-[4,5–dimethylthiazol-2-yl]-2,5-diphenyltetrazolium bromide) test (Sigma-Aldrich, Taufkirchen, Germany) according to the manufacturer’s protocol. At the beginning, for each cell line were determined the optimal seeding densities to ensure exponential growth throughout the experimental period. The confluent layer of cells were trypsinized, collected, and suspended in a growth medium. […] Then, the culture medium was replaced with solutions of different concentrations of test compounds in a fresh medium. Stock solutions of test compounds were prepared in DMSO and diluted to final concentrations with appropriate volumes of the growth medium directly before the experiment. Cells suspended in a medium supplemented with 0.5% DMSO (the amount of DMSO necessary to dissolve the highest dose of the respective sample) were used as a control of the experiment. […] The compound-treated cells were incubated for a further 24–72 h. […] After this time, the MTT dye was carefully removed, and the acquired formazan crystals were dissolved by DMSO (Chempur, Piekary Śląskie, Poland). The proliferation was evaluated by measuring the formazan product’s absorbance at a wavelength of 570 nm with a microplate spectrophotometer (Epoch, BioTek, Winooski, VT, USA). All experiments were conducted in triplicate with four technical repeats for each tested concentration. Results were expressed as the percentage change in the viability of the test cells relative to the untreated control cells and calculated as the inhibitory concentration (IC50). […] The results are expressed as the average value ± standard deviation (SD).

[2] = test system: MCF-7 cells; test: MTT cytotoxicity assay, MCF-7; type: cell-based, human; details: for IC50: Homo sapiens, MCF7, incubation time 72 h; for Selectivity Index (SI) MCF-7: IC50 NHDF-Neo / IC50 MCF-7, 72 h incubation; for inhibition of cell growth at the highest doses, MCF-7: 72 h
Method: as §1, §2

[3] = test system: MCF-7 cells; test: Annexin V-FITC/PI apoptosis flow cytometry, MCF-7; type: cell-based, human; details: IC50 dose, 24 h
Description: (§3) Apoptosis is a natural biological process involving programmed cell death and plays an important role in maintaining correct homeostasis between cell proliferation and cell death. This is in contrast to necrosis, which is accompanied by acute inflammation, preceded by cell degradation due to the loss of the integrity of the cell membrane. It is possible to distinguish viable cells from apoptotic and necrotic cell fractions using Annexin V-FITC and Propidium Iodide (PI). Annexin V-FITC labels phosphatidylserine residues that, after the start of apoptosis, are located on the outer surface of the cell membrane, enabling the identification of cells in the early stages of apoptosis. PI binds stoichiometrically to intracellular DNA during late apoptosis and necrosis when the cell membrane has been damaged. This combination allows for the differentiation of early apoptotic (A+/P−), late apoptotic (A+/P+), necrosis (A−/P+), and normal (A−/P−) cells that can be quantified by flow cytometry.
The cell cycle and the type of cell death induced by the test compounds were measured by using flow cytometry according to the manufacturer’s protocol. […] Control cells were grown with fresh medium supplemented with 0.5% DMSO. After 24 h of incubation, the cells were collected by trypsinization. Then, samples were centrifuged (3 min, 2000 rpm, RT) and washed with PBS, after which the cells were centrifuged again (3 min, 2000 rpm, RT) and the supernatant was carefully removed. The resulting precipitate contained cells, which were used for flow cytometry experiments.
The fraction of dead cells after treatment with the test compounds were detected using the FITC Annexin-V Apoptosis Detection Kit with PI (BioLegend, San Diego, CA, USA). […] 250 μL of the Annexin-V Binding Buffer was then added and the samples were incubated in the dark on ice for 15 min.

[4] = test system: NHDF-Neo cells; test: Annexin V-FITC/PI apoptosis flow cytometry, NHDF-Neo; type: cell-based; details: IC50 dose, 24 h
Description: as §3, with “This is important information from the point of view of drug design, as it provides detailed information on the cytotoxicity of a compound. Apoptosis” for “Apoptosis”, “cytometry. The experiments were performed on the HCT-116 and MCF-7 cancer cell lines and the NHDF-Neo healthy cell line. […] The results of the level of apoptosis induction by the tested compounds are presented in Figure 7 and in the Supplementary Materials (Figure S73).” for “cytometry.”
The cell cycle and the type of cell death induced by the test compounds were measured by using flow cytometry according to the manufacturer’s protocol. The cells were seeded into 6-well plates at a density of 3 × 10^5 (HCT-116) or 4 × 10^5 (MCF-7, NHDF-Neo) per well (3 mL) and allowed to attach for 24 h under standard conditions with 5% CO2 at 37 °C. The following day, the medium was removed and cells were treated with solutions of test compounds in fresh medium at a dose equal to their IC50 values. Control cells were grown with fresh medium supplemented with 0.5% DMSO. After 24 h of incubation, the cells were collected by trypsinization. Then, samples were centrifuged (3 min, 2000 rpm, RT) and washed with PBS, after which the cells were centrifuged again (3 min, 2000 rpm, RT) and the supernatant was carefully removed. The resulting precipitate contained cells, which were used for flow cytometry experiments.
The fraction of dead cells after treatment with the test compounds were detected using the FITC Annexin-V Apoptosis Detection Kit with PI (BioLegend, San Diego, CA, USA). First, cells were suspended in 50 μL of cold Annexin-V Binding Buffer (BioLegend, San Diego, CA, USA) and incubated in the dark with 2.5 μL of antibody Annexin-V FITC and 10 μL of propidium iodide (PI) at 37 °C for 20 min. 250 μL of the Annexin-V Binding Buffer was then added and the samples were incubated in the dark on ice for 15 min. Cytometric analyses were performed using an Aria III flow cytometer (Becton Dickinson, Franklin Lakes, NJ, USA) with the FITC configuration (488 nm excitation; emission: LP mirror 503, BP filter 530/30) or PE configuration (547 nm excitation; emission: 585 nm) and at least 10,000 cells were counted.

CC(=O)OC1O[C@H](Cn2cc(COc3cccc4cccnc34)nn2)[C@@H](OC(C)=O)[C@H](OC(C)=O)[C@H]1OC(C)=O (stereo partly shown) [Compound A-1]
IC50 ([1]; MTT, incubation time 24 h): 83.5 ± 1.91 µM | IC50 ([1]; MTT, incubation time 72 h): 12 ± 0.9 µM | Selectivity Index (SI) HCT-116 [1]: 10.83 | inhibition of cell growth at the highest doses, HCT-116 ([1]; MTT): 100% | IC50 ([2]; MTT): 52.8 ± 0.75 µM | Selectivity Index (SI) MCF-7 [2]: 2.46 | inhibition of cell growth at the highest doses, MCF-7 ([2]; MTT): 100% | apoptotic cells, MCF-7 [3]: 35% | normal cells remained, NHDF-Neo [4]: 98%

OC1O[C@H](Cn2cc(COc3cccc4cccnc34)nn2)[C@@H](O)[C@H](O)[C@H]1O (stereo partly shown) [Compound A-2]
IC50 ([1]; MTT, incubation time 24 h): 191 ± 2.46 µM | IC50 ([1]; MTT, incubation time 72 h): 22.3 ± 0.7 µM | Selectivity Index (SI) HCT-116 [1]: 14.21 | inhibition of cell growth at the highest doses, HCT-116 ([1]; MTT): 100% | IC50 ([2]; MTT): 54.9 ± 8.71 µM | Selectivity Index (SI) MCF-7 [2]: 5.78 | inhibition of cell growth at the highest doses, MCF-7 ([2]; MTT): 100% | apoptotic cells, MCF-7 [3]: 39% | normal cells remained, NHDF-Neo [4]: 95%

O[C@@H]1[C@@H](O)[C@@H](O[C@H]2O[C@H](Cn3cc(COc4cccc5cccnc45)nn3)[C@@H](O)[C@H](O)[C@H]2O)O[C@H](Cn2cc(COc3cccc4cccnc34)nn2)[C@H]1O [Compound D-2]
IC50 ([1]; MTT, incubation time 24 h): 53.4 ± 5.14 µM | IC50 ([1]; MTT, incubation time 72 h): 21.3 ± 0.94 µM | Selectivity Index (SI) HCT-116 [1]: 3.32 | IC50 ([2]; MTT): 34 ± 0.95 µM | Selectivity Index (SI) MCF-7 [2]: 2.08 | apoptotic cells, MCF-7 [3]: 70% | dead cell fraction, NHDF-Neo [4]: 51%

CC(=O)OC[C@H]1O[C@@H](n2cc(COc3cccc4cccnc34)nn2)[C@H](OC(C)=O)[C@@H](OC(C)=O)[C@@H]1OC(C)=O [Compound E-1, reference compound]
IC50 ([1]; MTT, incubation time 72 h): 45.7 ± 1.81 µM | Selectivity Index (SI) HCT-116 [1]: 1.21 | inhibition of cell growth at the highest doses, HCT-116 ([1]; MTT): 100% | IC50 ([2]; MTT): 57.7 ± 3.32 µM | Selectivity Index (SI) MCF-7 [2]: 0.96 | inhibition of cell growth at the highest doses, MCF-7 ([2]; MTT): 100% | apoptosis induction in words, MCF-7 [3]: did not induce apoptosis | cells in late apoptosis, NHDF-Neo [4]: 61% | necrotic cells, NHDF-Neo [4]: 14%

OC[C@H]1O[C@@H](n2cc(COc3cccc4cccnc34)nn2)[C@H](O)[C@@H](O)[C@@H]1O [Compound E-2, reference compound]
IC50 ([1]; MTT, incubation time 24 h): 212 ± 7.71 µM | IC50 ([1]; MTT, incubation time 72 h): 162 ± 5.97 µM | Selectivity Index (SI) HCT-116 [1]: 1.43 | growth inhibitory activity in words, HCT-116 ([1]; MTT): practically did not affect the cell viability | IC50 ([2]; MTT): 185 ± 2.21 µM | Selectivity Index (SI) MCF-7 [2]: 1.26 | growth inhibitory activity in words, MCF-7 ([2]; MTT): practically did not affect the cell viability | cells in late apoptosis, NHDF-Neo [4]: 57% | necrotic cells, NHDF-Neo [4]: 9%
